Measurements reported in publication PMC4794209, “Preformulation Studies on Piperlongumine” (PLoS ONE, 2016).

Key:
Format in all cases: physicochemical
[1] = n-octanol/water partitioning study; settings: room temperature, read-out: Partition coefficient (log P)
Experimental: Piperlongumine crystals were placed in a small glass bottle containing equal volumes of n-octanol and water. The bottle was shaken for 24 hours, after which time, the bottle was allowed to equilibrate without mixing for an additional 24 hours to ensure full separation between the n-octanol and water layers. A sample from each layer was carefully withdrawn and analyzed by HPLC.

[2] = Aqueous stability studies (pH, temperature, ionic strength)
Experimental: Aqueous stability studies for piperlongumine were conducted in three buffer systems: citrate (pH 3, 4, and 5); phosphate (pH 5, 6, and 7); and borate (pH 8 and 9). The ionic strength for the solutions was also varied, utilizing approximately 0.2 or 0.5 M. Each buffered sample was prepared with 10% acetonitrile as a cosolvent, then sealed and protected from light. Samples were stored at four different temperatures: 4°C (for samples at pH 3, 8 and 9 only), 26°C, 56°C and 67°C. Aliquots were regularly withdrawn for analysis. Changes in pH, if any, were also monitored. Stability studies were carried out for 18 months or until complete degradation occurred.
Apparent first order degradation was also obtained for the 4, […] and 67°C degradation profiles. Degradation rate constants, k-values, for piperlongumine were calculated using the slopes of the trend lines of each profile.
An Arrhenius plot of log k versus the reciprocal of the temperature (Fig 9) was utilized to determine the length of time it takes for piperlongumine to degrade 50% (T50) and 10% (T90). For a given pH the Arrhenius equation was utilized: Log k = log A − (Ea/2.303 RT) (1) Where: […]

[3] = Additional stability studies with antioxidants, chelator, hydrogen peroxide
Experimental: The addition of antioxidants such as ascorbic acid and sodium bisulfite and the chelator EDTA were evaluated with the drug at pH 3 (citrate buffer) and pH 7 (phosphate buffer). Samples in phosphate buffer were maintained at 26°C while the samples in citrate buffer were kept at 56°C. All three agents were used at a concentration of 0.05% w/v. Aliquots were withdrawn on a regular basis and pH and drug concentration were monitored. Piperlongumine stability was also examined after the addition of 1.5% w/v hydrogen peroxide in pH 3 citrate buffer at room temperature.

[4] = pH 3, citrate, ionic strength 0.2, 25°C
[5] = pH 3, citrate, ionic strength 0.5, 25°C
[6] = pH 5, citrate, ionic strength 0.2, 25°C
[7] = pH 5, phosphate, ionic strength 0.2, 25°C
[8] = pH 5, phosphate, ionic strength 0.5, 25°C
[9] = pH 6, phosphate, ionic strength 0.2, 25°C
[10] = pH 7, phosphate, ionic strength 0.2, 25°C
[11] = pH 8, borate, ionic strength 0.2, 25°C
[12] = pH 9, borate, ionic strength 0.2, 25°C
[13] = pH 9, borate, ionic strength 0.5, 25°C
[14] = citrate, pH 3, 26°C, hydrogen peroxide 1.5% w/v
[15] = citrate, pH 3, 56°C, EDTA 0.05% w/v
[16] = citrate, pH 3, 56°C, ascorbic acid 0.05% w/v
[17] = citrate, pH 3, 56°C, no additional substance
[18] = citrate, pH 3, 56°C, sodium bisulfite 0.05% w/v
[19] = phosphate, pH 7, 26°C, EDTA 0.05% w/v
[20] = phosphate, pH 7, 26°C, ascorbic acid 0.05% w/v
[21] = phosphate, pH 7, 26°C, no additional substance
[22] = phosphate, pH 7, 26°C, sodium bisulfite 0.05% w/v

## COc1cc(/C=C/C(=O)N2CCC=CC2=O)cc(OC)c1OC [piperlongumine, 1-[(2E)-3-(3,4,5-trimethoxyphenyl)prop-2-enoyl]-1,2,5,6-tetrahydropyridin-2-one]
[1]
  logP at 24 h: 2.37 ± 0.12
[2]; 0.2 M vs 0.5 M, pH 9, borate buffer
  Effect of ionic strength on degradation rate: No difference in degradation rate
[2]; 56°C, several pH conditions
  Kinetics of thermal degradation: first order degradation kinetics
[2]; citrate vs phosphate, pH 5
  Effect of buffer species on degradation rate: degradation rates are similar
[2]; increase from approximately 0.2 M to 0.5 M, pH 3 and pH 5
  Effect of ionic strength on stability half-life: nominal effects
[2]; pH 3, citrate, ionic strength 0.2
  Ea: 21.2 kcal/mol
[2]; [4]
  T50 at 25°C: 69.6 weeks
  T90 at 25°C: 10.6 weeks
[2]; pH 3, citrate, ionic strength 0.2, 26°C
  k values 26°C: 0.0110 weeks^-1
[2]; pH 3, citrate, ionic strength 0.2, 56°C
  k values 56°C: 0.3057 weeks^-1
[2]; pH 3, citrate, ionic strength 0.2, 67°C
  k values 67°C: 0.7808 weeks^-1
[2]; pH 3, citrate, ionic strength 0.5
  Ea: 22.1 kcal/mol
[2]; [5]
  T50 at 25°C: 75.4 weeks
  T90 at 25°C: 11.5 weeks
[2]; pH 3, citrate, ionic strength 0.5, 26°C
  k values 26°C: 0.0101 weeks^-1
[2]; pH 3, citrate, ionic strength 0.5, 56°C
  k values 56°C: 0.3413 weeks^-1
[2]; pH 3, citrate, ionic strength 0.5, 67°C
  k values 67°C: 0.8383 weeks^-1
[2]; pH 3 citrate, 26°C, from Table 1
  T90 without hydrogen peroxide: about 9.5 weeks
[2]; pH 4, citrate, ionic strength 0.2
  Ea: 20.3 kcal/mol
[2]; pH 4, citrate, ionic strength 0.2, 25°C
  T50 at 25°C: 112.9 weeks
[2]; pH 4, citrate, ionic strength 0.2, 26°C
  k values 26°C: 0.0067 weeks^-1
[2]; pH 4, citrate, ionic strength 0.2, 56°C
  k values 56°C: 0.1739 weeks^-1
[2]; pH 4, citrate, ionic strength 0.2, 67°C
  k values 67°C: 0.3813 weeks^-1
[2]; pH 5, citrate, ionic strength 0.2
  Ea: 20.7 kcal/mol
[2]; [6]
  T50 at 25°C: 87.6 weeks
  T90 at 25°C: 13.3 weeks
[2]; pH 5, citrate, ionic strength 0.2, 26°C
  k values 26°C: 0.0090 weeks^-1
[2]; pH 5, citrate, ionic strength 0.2, 56°C
  k values 56°C: 0.2045 weeks^-1
[2]; pH 5, citrate, ionic strength 0.2, 67°C
  k values 67°C: 0.6125 weeks^-1
[2]; pH 5, phosphate, ionic strength 0.2
  Ea: 21.5 kcal/mol
[2]; [7]
  T50 at 25°C: 101.5 weeks
  T90 at 25°C: 15.4 weeks
[2]; pH 5, phosphate, ionic strength 0.2, 26°C
  k values 26°C: 0.0076 weeks^-1
[2]; pH 5, phosphate, ionic strength 0.2, 56°C
  k values 56°C: 0.2201 weeks^-1
[2]; pH 5, phosphate, ionic strength 0.2, 67°C
  k values 67°C: 0.5741 weeks^-1
[2]; pH 5, phosphate, ionic strength 0.5
  Ea: 20.3 kcal/mol
[2]; [8]
  T50 at 25°C: 88.7 weeks
  T90 at 25°C: 13.5 weeks
[2]; pH 5, phosphate, ionic strength 0.5, 26°C
  k values 26°C: 0.0090 weeks^-1
[2]; pH 5, phosphate, ionic strength 0.5, 56°C
  k values 56°C: 0.1764 weeks^-1
[2]; pH 5, phosphate, ionic strength 0.5, 67°C
  k values 67°C: 0.5741 weeks^-1
[2]; pH 6, phosphate, ionic strength 0.2
  Ea: 22.7 kcal/mol
[2]; [9]
  T50 at 25°C: 75.5 weeks
  T90 at 25°C: 11.5 weeks
[2]; pH 6, phosphate, ionic strength 0.2, 26°C
  k values 26°C: 0.0108 weeks^-1
[2]; pH 6, phosphate, ionic strength 0.2, 56°C
  k values 56°C: 0.2919 weeks^-1
[2]; pH 6, phosphate, ionic strength 0.2, 67°C
  k values 67°C: 1.1652 weeks^-1
[2]; pH 7, phosphate, ionic strength 0.2
  Ea: 22.5 kcal/mol
[2]; [10]
  T50 at 25°C: 16.0 weeks
  T90 at 25°C: 2.4 weeks
[2]; pH 7, phosphate, ionic strength 0.2, 26°C
  k values 26°C: 0.0506 weeks^-1
[2]; pH 7, phosphate, ionic strength 0.2, 56°C
  k values 56°C: 1.3607 weeks^-1
[2]; pH 7, phosphate, ionic strength 0.2, 67°C
  k values 67°C: 5.1370 weeks^-1
[2]; pH 8, borate, ionic strength 0.2
  Ea: 19.8 kcal/mol
[2]; pH 8, borate, ionic strength 0.2, 4°C
  k values 4°C: 0.0232 weeks^-1
[2]; [11]
  T50 at 25°C: 2.0 weeks
  T90 at 25°C: 0.3 weeks
[2]; pH 8, borate, ionic strength 0.2, 26°C
  k values 26°C: 0.5120 weeks^-1
[2]; pH 8, borate, ionic strength 0.2, 56°C
  k values 56°C: 7.2924 weeks^-1
[2]; pH 8, borate, ionic strength 0.2, 67°C
  k values 67°C: 20.933 weeks^-1
[2]; pH 9, borate, ionic strength 0.2
  Ea: 22.7 kcal/mol
[2]; pH 9, borate, ionic strength 0.2, 4°C
  k values 4°C: 0.1182 weeks^-1
[2]; [12]
  T50 at 25°C: 0.3 weeks
  T90 at 25°C: 0.05 weeks
[2]; pH 9, borate, ionic strength 0.2, 26°C
  k values 26°C: 2.4375 weeks^-1
[2]; pH 9, borate, ionic strength 0.5
  Ea: 22.7 kcal/mol
[2]; pH 9, borate, ionic strength 0.5, 4°C
  k values 4°C: 0.1171 weeks^-1
[2]; [13]
  T50 at 25°C: 0.3 weeks
  T90 at 25°C: 0.05 weeks
[2]; pH 9, borate, ionic strength 0.5, 26°C
  k values 26°C: 2.4372 weeks^-1
[2]; pH degradation rate profile, 26, 56, 67°C
  pH of maximum stability: ~4
[2]; pH values ≥ 7 and 3, various temperatures
  Stability in pH degradation rate profile: significant instability
[2]; stability samples at pH 3, 5 and 8, LC-MS
  Major degradation products: 3,4,5- trimethoxycinnamic acid and piperlongumic acid
[3]; addition of ascorbic acid and EDTA, pH 7 phosphate buffer, vs drug alone
  Effect on the stability profile: did not have a significant effect
[3]; addition of ascorbic acid, pH 3
  Effect on degradation: did not readily affect the degradation
[3]; addition of hydrogen peroxide (oxidizing agent)
  Effect on degradation: does significantly increase degradation
[3]; addition of sodium bisulfite, pH 3 citrate buffer, 56°C, vs drug alone
  Effect on degradation rate: did not affect the degradation rate
[3]; addition of sodium bisulfite, pH 7
  Time of degradation: within a few minutes
[3]; [14]
  T90: 0.3 weeks
  k values: 0.3369 weeks^-1
[3]; [15]
  T90: 0.3 weeks
  k values: 0.3266 weeks^-1
[3]; [16]
  T90: 0.3 weeks
  k values: 0.3706 weeks^-1
[3]; [17]
  T90: 0.3 weeks
  k values: 0.3107 weeks^-1
[3]; [18]
  T90: 0.3 weeks
  k values: 0.3860 weeks^-1
[3]; [19]
  T90: 1.9 weeks
  k values: 0.0559 weeks^-1
[3]; [20]
  T90: 2.3 weeks
  k values: 0.0459 weeks^-1
[3]; [21]
  T90: 2.1 weeks
  k values: 0.0494 weeks^-1
[3]; [22]
  T90: 0.0 weeks
  k values: 3069.8950 weeks^-1
